IC50 and melting point data for 26 compounds are collected here from patent US8349824B2, “Triazolopyridine compounds” (Hoffmann-La Roche Inc., priority 2010, dated 2013).

One data set deals with T1, human PDE10A full length (Homo sapiens, UniProt Q9Y233).
T1 construct: purchased Enzo Life Science, Lausen, Switzerland SE-534
The data set is described as follows: PDE10A Scintillation Proximity Assay (SPA), human PDE10A full length assay. The format is biochemical. The following applies: 50 nM cGMP + 50 nM [3H]-cGMP, 20 minutes at room temperature, read-out: PDE10A inhibition IC50. The gist of the method:
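IC50 values come from radioactive counts across a range of inhibitor concentrations, using YSi-SPA beads in zinc sulphate as stop reagent. Full-length enzyme hydrolysed 50 nM cGMP with 50 nM [3H]-cGMP for 20 min at room temperature in pH 7.5 HEPES buffer containing 10 mM MgCl2 and 0.05 mg/ml BSA.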
A general note: SPA uses beads or plates that emit light when radiolabelled molecules are held near them.

T1 sequence (Q9Y233 1-779 isoform Q9Y233-1): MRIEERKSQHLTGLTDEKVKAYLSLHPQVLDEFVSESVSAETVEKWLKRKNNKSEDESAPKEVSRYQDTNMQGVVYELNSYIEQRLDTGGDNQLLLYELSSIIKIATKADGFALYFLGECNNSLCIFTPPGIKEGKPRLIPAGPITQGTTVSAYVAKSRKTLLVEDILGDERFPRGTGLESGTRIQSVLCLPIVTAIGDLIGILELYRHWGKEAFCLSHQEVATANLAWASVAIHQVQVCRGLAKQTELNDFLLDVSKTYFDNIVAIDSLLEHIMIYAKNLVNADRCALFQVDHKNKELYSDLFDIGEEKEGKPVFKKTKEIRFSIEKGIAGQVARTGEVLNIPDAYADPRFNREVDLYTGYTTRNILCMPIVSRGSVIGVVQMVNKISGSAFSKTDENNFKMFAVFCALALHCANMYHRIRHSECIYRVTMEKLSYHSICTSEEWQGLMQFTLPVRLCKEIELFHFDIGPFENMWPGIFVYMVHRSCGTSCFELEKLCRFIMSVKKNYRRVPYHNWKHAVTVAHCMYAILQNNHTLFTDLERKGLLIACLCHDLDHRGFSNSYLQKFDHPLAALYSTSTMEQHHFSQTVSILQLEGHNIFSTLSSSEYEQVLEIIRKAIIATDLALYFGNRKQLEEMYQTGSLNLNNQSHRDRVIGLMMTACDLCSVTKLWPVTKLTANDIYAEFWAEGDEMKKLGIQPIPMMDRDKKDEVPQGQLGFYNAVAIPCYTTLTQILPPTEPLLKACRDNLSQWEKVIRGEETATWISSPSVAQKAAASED

By IC50 is commonly meant the concentration that inhibits the measured activity by half. What is called melting point is the temperature of the solid-liquid transition. With `Cn1ncc(C(=O)N2CC(F)C2)c1C(=O)Nc1ccn2nc(-c3ccccc3)nc2c1` [Example 25, 4-(3-Fluoroazetidine-1-carbonyl)-1-methyl-N-(2-phenyl-[1,2,4]triazolo[1,5-a]pyridin-7-yl)-1H-pyrazole-5-carboxamide], the melting point is 259 to 262 °C. The IC50 on human PDE10A full length came to 0.39 nM.

`CCOC(=O)c1cnn(C)c1C(=O)Nc1ccn2nc(-c3ccccc3)nc2c1` [Example 28, ethyl 1-methyl-5-(2-phenyl-[1,2,4]triazolo[1,5-a]pyridin-7-ylcarbamoyl)-1H-pyrazole-4-carboxylate] displayed a melting point of 242 to 243 °C. The IC50 on human PDE10A full length worked out at 7.3 nM.

In turn, `Cn1ncc(C(=O)N2CCOCC2)c1C(=O)Nc1ccn2nc(N3CCOCC3)nc2c1` [Example 29, 1-Methyl-4-(morpholine-4-carbonyl)-N-(2-morpholino-[1,2,4]triazolo[1,5-a]pyridin-7-yl)-1H-pyrazole-5-carboxamide] returned a melting point of 206 to 208 °C. Besides, the IC50 at human PDE10A full length is 40.5 nM.

As for `Cn1ncc(C(=O)N2CCC2)c1C(=O)Nc1cc2nc(-c3ccccc3)nn2cc1F` [Example 30, 4-(Azetidine-1-carbonyl)-N-(6-fluoro-2-phenyl-[1,2,4]triazolo[1,5-a]pyridin-7-yl)-1-methyl-1H-pyrazole-5-carboxamide], the melting point is over 250 °C. The 50% inhibitory concentration (IC50) at human PDE10A full length came to 1.27 nM.

Take `Cn1ncc(C(=O)N2CCCC2)c1C(=O)Nc1cc2nc(-c3ccccc3)nn2cc1F` [Example 31, N-(6-fluoro-2-phenyl-[1,2,4]triazolo[1,5-a]pyridin-7-yl)-1-methyl-4-(pyrrolidine-1-carbonyl)-1H-pyrazole-5-carboxamide]: the melting point was in the range of 250 to 251 °C. In addition, the IC50 at human PDE10A full length was 0.48 nM.

As for `Cn1ncc(C(=O)N2CCOCC2)c1C(=O)Nc1cc2nc(-c3ccccc3)nn2cc1F` [Example 32, 2-Methyl-4-(morpholine-4-carbonyl)-2H-pyrazole-3-carboxylic acid (6-fluoro-2-phenyl-[1,2,4]triazolo[1,5-a]pyridin-7-yl)-amide], the melting point was in the range of 224 to 225 °C. In addition, on human PDE10A full length, the IC50 worked out at 0.98 nM.

`CC(C)c1nc2cc(NC(=O)c3c(C(=O)N4CCCC4)cnn3C)ccn2n1` [Example 34, N-(2-isopropyl-[1,2,4]triazolo[1,5-a]pyridin-7-yl)-1-methyl-4-(pyrrolidine-1-carbonyl)-1H-pyrazole-5-carboxamide] yielded a melting point of 141 to 143 °C. Also, the IC50 on human PDE10A full length amounted to 28.3 nM.

As to `CN(C)c1nc2cc(NC(=O)c3c(C(=O)N4CCC4)cnn3C)ccn2n1` [Example 35, 4-(Azetidine-1-carbonyl)-N-(2-(dimethylamino)-[1,2,4]triazolo[1,5-a]pyridin-7-yl)-1-methyl-1H-pyrazole-5-carboxamide], the melting point was 240 to 241 °C. On human PDE10A full length, the IC50 worked out at 7.39 nM.

`CN(C)c1nc2cc(NC(=O)c3c(C(=O)N4CCOCC4)cnn3C)ccn2n1` [Example 36, N-(2-(dimethylamino)-[1,2,4]triazolo[1,5-a]pyridin-7-yl)-1-methyl-4-(morpholine-4-carbonyl)-1H-pyrazole-5-carboxamide] displayed a melting point of 196 to 198 °C. Also, the IC50 at human PDE10A full length was 43.5 nM.

`CN(C)c1nc2cc(NC(=O)c3c(C(=O)N4CCCC4)cnn3C)ccn2n1` [Example 37, N-(2-(dimethylamino)-[1,2,4]triazolo[1,5-a]pyridin-7-yl)-1-methyl-4-(pyrrolidine-1-carbonyl)-1H-pyrazole-5-carboxamide] came in with a melting point of 199 to 201 °C. In addition, on human PDE10A full length, the IC50 amounted to 4.46 nM.

The compound `CN(C)c1nc2cc(NC(=O)c3c(C(=O)N4CC(F)C4)cnn3C)ccn2n1` [Example 38, N-(2-(dimethylamino)-[1,2,4]triazolo[1,5-a]pyridin-7-yl)-4-(3-fluoroazetidine-1-carbonyl)-1-methyl-1H-pyrazole-5-carboxamide] had a melting point of 243 to 244 °C. The half-maximal inhibitory concentration (IC50) on human PDE10A full length worked out at 19.6 nM.

Turning to `CCN(CC)C(=O)c1cnn(C)c1C(=O)Nc1ccn2nc(N3CCOCC3)nc2c1` [Example 39, N4,N4-diethyl-1-methyl-N5-(2-morpholino-[1,2,4]triazolo[1,5-a]pyridin-7-yl)-1H-pyrazole-4,5-dicarboxamide], the melting point was in the range of 165 to 167 °C. For the same compound, on human PDE10A full length, the IC50 was found to be 22.4 nM.

Compound `CN(C)C(=O)c1cnn(C)c1C(=O)Nc1ccn2nc(N3CCOCC3)nc2c1` [Example 40, N4,N4,1-trimethyl-N5-(2-morpholino-[1,2,4]triazolo[1,5-a]pyridin-7-yl)-1H-pyrazole-4,5-dicarboxamide] displayed a melting point of 237 to 240 °C. In addition, the IC50 on human PDE10A full length came out at 7.14 nM.

As to `CCN(C)C(=O)c1cnn(C)c1C(=O)Nc1ccn2nc(N3CCOCC3)nc2c1` [Example 41, N4-ethyl-N4,1-dimethyl-N5-(2-morpholino-[1,2,4]triazolo[1,5-a]pyridin-7-yl)-1H-pyrazole-4,5-dicarboxamide], the melting point was 201 to 203 °C. In addition, the IC50 at human PDE10A full length is 6.68 nM.

In turn, `Cn1ncc(C(=O)N2CCC2)c1C(=O)Nc1ccn2nc(-c3cccnc3)nc2c1` [Example 44, 4-(Azetidine-1-carbonyl)-1-methyl-N-(2-(pyridin-3-yl)-[1,2,4]triazolo[1,5-a]pyridin-7-yl)-1H-pyrazole-5-carboxamide] registered a melting point of 253 to 254 °C. Also, the IC50 at human PDE10A full length stood at 5.79 nM.

As for `Cn1ncc(C(=O)N2CCOCC2)c1C(=O)Nc1ccn2nc(-c3cccnc3)nc2c1` [Example 45, 1-Methyl-4-(morpholine-4-carbonyl)-N-(2-(pyridin-3-yl)-[1,2,4]triazolo[1,5-a]pyridin-7-yl)-1H-pyrazole-5-carboxamide], the melting point lay in the range of 218 to 220 °C. Also, the IC50 at human PDE10A full length was 4.29 nM.

In turn, `Cn1ncc(C(=O)N2CCCC2)c1C(=O)Nc1ccn2nc(-c3cccnc3)nc2c1` [Example 46, 1-Methyl-N-(2-(pyridin-3-yl)-[1,2,4]triazolo[1,5-a]pyridin-7-yl)-4-(pyrrolidine-1-carbonyl)-1H-pyrazole-5-carboxamide] returned a melting point of 226 to 228 °C. Further, the IC50 on human PDE10A full length was determined as 1.17 nM.

`Cn1ncc(C(=O)N2CC(F)C2)c1C(=O)Nc1ccn2nc(-c3cccnc3)nc2c1` [Example 47, 4-(3-Fluoroazetidine-1-carbonyl)-1-methyl-N-(2-(pyridin-3-yl)-[1,2,4]triazolo[1,5-a]pyridin-7-yl)-1H-pyrazole-5-carboxamide] registered a melting point of 247 to 249 °C. In addition, at human PDE10A full length, the IC50 worked out at 1.24 nM.

The compound `CN(C(=O)c1cnn(C)c1C(=O)Nc1ccn2nc(-c3ccccc3)nc2c1)C1CC1` [Example 48, 2-Methyl-2H-pyrazole-3,4-dicarboxylic acid 4-(cyclopropyl-methyl-amide)3-[(2-phenyl-[1,2,4]triazolo[1,5-a]pyridin-7-yl)-amide]] yielded a melting point of 156 to 157 °C. For the same compound, the IC50 at human PDE10A full length was 0.98 nM.

With `CN(CC(F)(F)F)C(=O)c1cnn(C)c1C(=O)Nc1ccn2nc(-c3ccccc3)nc2c1` [Example 49, 2-Methyl-2H-pyrazole-3,4-dicarboxylic acid 4-[methyl-(2,2,2-trifluoro-ethyl)-amide]3-[(2-phenyl-[1,2,4]triazolo[1,5-a]pyridin-7-yl)-amide]], the melting point was over 250 °C. In addition, the IC50 at human PDE10A full length amounted to 0.84 nM.

Take `CC(C)c1nc2cc(NC(=O)c3c(C(=O)N4CCC4)cnn3C)ccn2n1` [Example 50, 4-(Azetidine-1-carbonyl)-2-methyl-2H-pyrazole-3-carboxylic acid (2-isopropyl-[1,2,4]triazolo[1,5-a]pyridin-7-yl)-amide]: the melting point fell in the range of 226 to 227 °C. Besides, the IC50 at human PDE10A full length worked out at 47.3 nM.

`CC(C)c1nc2cc(NC(=O)c3c(C(=O)N4CC(F)C4)cnn3C)ccn2n1` [Example 51, 4-(3-Fluoro-azetidine-1-carbonyl)-2-methyl-2H-pyrazole-3-carboxylic acid (2-isopropyl-[1,2,4]triazolo[1,5-a]pyridin-7-yl)-amide] registered a melting point of 226 to 227 °C. At human PDE10A full length, the IC50 was 42 nM.

In turn, `CN(C(=O)c1cnn(C)c1C(=O)Nc1ccn2nc(N3CCOCC3)nc2c1)C1CCCC1` [Example 52, N4-cyclopentyl-N4,1-dimethyl-N5-(2-morpholino-[1,2,4]triazolo[1,5-a]pyridin-7-yl)-1H-pyrazole-4,5-dicarboxamide] came in with a melting point of 222 to 224 °C. Further, the IC50 on human PDE10A full length turned out to be 57.4 nM.

`CN(CCF)C(=O)c1cnn(C)c1C(=O)Nc1ccn2nc(-c3cccnc3)nc2c1` [Example 56, 2-Methyl-2H-pyrazole-3,4-dicarboxylic acid 4-[(2-fluoro-ethyl)-methyl-amide]3-[(2-pyridin-3-yl-[1,2,4]triazolo[1,5-a]pyridin-7-yl)-amide]] gave a melting point of 200 to 208 °C. For the same compound, the IC50 at human PDE10A full length came out at 3.69 nM.

On to `CCN(C)c1nc2cc(NC(=O)c3c(C(=O)N4CCC4)cnn3C)ccn2n1` [Example 58, 4-(Azetidine-1-carbonyl)-2-methyl-2H-pyrazole-3-carboxylic acid [2-(ethyl-methyl-amino)-[1,2,4]triazolo[1,5-a]pyridin-7-yl]-amide], for which the melting point was in the range of 229 to 232 °C. Besides, the IC50 on human PDE10A full length was determined as 7.03 nM.

Consider `CCN(C)c1nc2cc(NC(=O)c3c(C(=O)N4CCOCC4)cnn3C)ccn2n1` [Example 59, 2-Methyl-4-(morpholine-4-carbonyl)-2H-pyrazole-3-carboxylic acid [2-(ethyl-methyl-amino)-[1,2,4]triazolo[1,5-a]pyridin-7-yl]-amide], for which the melting point lay within 167 to 169 °C. Moreover, the IC50 on human PDE10A full length was 7.97 nM.
